Values of other authors, collected in publication PMC6650409, “Modeling the binding of diverse ligands within the Ah receptor ligand binding domain” (Scientific Reports, 2019).

Legend:
[1] = system: zebrafish AhR1a (zfAhR1a); settings: cited from earlier work
[2] = system: AhR; parameters: method as in PMID 21981577; settings: in words; cited from earlier work
[3] = target: T1, mAhR (Mus musculus, UniProt P30561); parameters: method as in PMID 21981577; settings: in words; cited from earlier work
T1 construct: made in house; host or cells: in vitro, Promega TNT Quick coupled transcription/translation rabbit reticulocyte lysate
T1 sequence (P30561 10-848): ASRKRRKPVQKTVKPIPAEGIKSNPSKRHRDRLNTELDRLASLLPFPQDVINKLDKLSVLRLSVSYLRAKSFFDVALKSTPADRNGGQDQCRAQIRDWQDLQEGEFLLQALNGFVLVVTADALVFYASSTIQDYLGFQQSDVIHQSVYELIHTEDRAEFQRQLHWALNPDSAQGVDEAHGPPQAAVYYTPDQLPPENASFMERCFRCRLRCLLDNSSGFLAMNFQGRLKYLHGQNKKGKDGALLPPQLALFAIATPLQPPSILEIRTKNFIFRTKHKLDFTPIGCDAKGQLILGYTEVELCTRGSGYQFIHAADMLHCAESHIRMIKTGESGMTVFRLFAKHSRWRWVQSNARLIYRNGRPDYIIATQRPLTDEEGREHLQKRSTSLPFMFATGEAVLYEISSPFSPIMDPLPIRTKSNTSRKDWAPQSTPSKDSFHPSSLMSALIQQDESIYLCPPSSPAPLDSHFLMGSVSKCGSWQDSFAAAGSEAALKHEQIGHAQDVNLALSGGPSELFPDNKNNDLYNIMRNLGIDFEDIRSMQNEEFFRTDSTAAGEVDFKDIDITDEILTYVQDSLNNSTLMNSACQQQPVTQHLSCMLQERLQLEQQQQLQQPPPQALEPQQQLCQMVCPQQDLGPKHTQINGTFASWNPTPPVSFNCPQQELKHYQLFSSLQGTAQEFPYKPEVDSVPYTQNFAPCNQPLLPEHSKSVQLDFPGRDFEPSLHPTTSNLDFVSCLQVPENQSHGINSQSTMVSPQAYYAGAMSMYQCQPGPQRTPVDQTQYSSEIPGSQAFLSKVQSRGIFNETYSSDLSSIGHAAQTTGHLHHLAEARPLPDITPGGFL

Row | SMILES | ligand binding to zfAhR1a [1] | AhR agonist activity [2] | displacement of [3H]TCDD specific binding to the mAhR [3]
1 | Cc1oncc1C(=O)Nc1ccc(C(F)(F)F)cc1 [LEFL, Leflunomide] | could still bind and be activated | – | –
2 | O=[N+]([O-])c1cc(C(F)(F)F)ccc1NCc1ccsc1 [THS-017] | – | acted as AhR agonists | could competitively displace
3 | O=[N+]([O-])c1cc(C(F)(F)F)ccc1NCc1ccco1 [THS-020] | – | acted as AhR agonists | could competitively displace
